{"source": "patent US8580832B2", "about": "“Substituted phenoxy aminothiazolones as estrogen related receptor-α modulators” (Janssen Pharmaceutica N.V., priority 2007, dated 2013)", "data": [{"target": "T1, ERR1 (also known as ERR-α or ERR-1) (Homo sapiens, UniProt P11474)", "T1 construct": "the ^6His-tagged-ERR1 LBD", "T1 sequence (P11474 193-421 limits assumed)": "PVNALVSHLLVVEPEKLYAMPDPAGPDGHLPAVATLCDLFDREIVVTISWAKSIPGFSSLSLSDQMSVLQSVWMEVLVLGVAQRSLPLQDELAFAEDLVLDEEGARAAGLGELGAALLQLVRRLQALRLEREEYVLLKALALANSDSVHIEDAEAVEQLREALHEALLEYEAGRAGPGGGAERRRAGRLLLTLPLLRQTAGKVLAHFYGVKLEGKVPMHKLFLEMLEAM", "assay": "TR-FRET assay: disruption of co-activator peptide binding to ERR1 LBD", "assay_type": "biochemical", "settings": "6His-tagged ERR1 LBD 6 nM, GST-SRC-2 peptide 6 nM, 25° C., 4-18 hours; average of 3 independent experiments", "method": "Time-Resolved Fluorescence Resonance Energy Transfer (TR-FRET) experiments were performed to examine the functional response of ERR1 (also known as ERR-α or ERR-1) ligands. The TR-FRET assay described herein relied on the conformation of ERR1 for binding to a co-activator peptide: when a test compound binds to ERR1 and alters its conformation, it can disrupt the binding of the co-activator peptide. The components of this homogeneous secondary assay included: the ^6His-tagged-ERR1 LBD, a GST-labeled-hSRC2 co-activator polypeptide and a fluorescent donor/acceptor pair from CIS bio international htrf/bioassays (Bedford, Mass.) using both an α-GST Europium Cryptate (Eu) label and an α^6His-XL665 (allophycocyanin) fluorophore.\nFor TR-FRET measurements, the reaction was buffered in 25 mM Tris pH 8, 2.5 mM Hepes, 20 mM KCl, 1 mM DTT, and 0.05 mg/mL BSA (-lipids). […] Reactions were allowed to reach equilibrium at 25° C. for 4-18 hours before collecting data on the Analyst from LJL Biosystems (Molecular Devices Sunnyvale, Calif.). […] Dose response curves were fitted using a hyperbolic equation and the data reported is the average of 3 independent experiments.", "units": {"EC50": "µM"}, "values": [{"compound": "COc1cc(/C=C2\\SC(N)=NC2=O)ccc1Oc1ccc(C#N)cc1C(F)(F)F", "note": "[Compound 1, 4-[4-(2-Amino-4-oxo-4H-thiazol-5-ylidenemethyl)-2-methoxy-phenoxy]-3-trifluoromethyl-benzonitrile]", "EC50": 0.012}, {"compound": "COc1cc(/C=C2\\SC(N)=NC2=O)ccc1Oc1ccc(C#N)cc1Cl", "note": "[Compound 2, 4-[4-(2-Amino-4-oxo-4H-thiazol-5-ylidenemethyl)-2-methoxy-phenoxy]-3-chloro-benzonitrile]", "EC50": 0.21}, {"compound": "N#Cc1ccc(Oc2ccc(/C=C3\\SC(N)=NC3=O)cc2Cl)c(C(F)(F)F)c1", "note": "[Compound 3, 4-[2-Chloro-4-(2-imino-4-oxo-thiazolidin-5-ylidenemethyl)-phenoxy]-3-trifluoromethyl-benzonitrile]", "EC50": 0.087}, {"compound": "N#Cc1ccc(Oc2ccc(/C=C3\\SC(N)=NC3=O)cc2F)c2ccccc12", "note": "[Compound 4, 4-[2-Fluoro-4-(2-imino-4-oxo-thiazolidin-5-ylidenemethyl)-phenoxy]-naphthalene-1-carbonitrile]", "EC50": 0.018}, {"compound": "COc1cc(/C=C2\\SC(N3CCOCC3)=NC2=O)ccc1Oc1ccc(C#N)cc1C(F)(F)F", "note": "[Compound 5, 4-[2-Methoxy-4-(2-morpholin-4-yl-4-oxo-4H-thiazol-5-ylidenemethyl)-phenoxy]-3-trifluoromethyl-benzonitrile]", "EC50": 0.02}, {"compound": "N#Cc1ccc(Oc2ccc(/C=C3\\SC(N4CCOCC4)=NC3=O)cc2F)c(C(F)(F)F)c1", "note": "[Compound 6, 4-[2-Fluoro-4-(2-morpholin-4-yl-4-oxo-4H-thiazol-5-ylidenemethyl)-phenoxy]-3-trifluoromethyl-benzonitrile]", "EC50": 0.05}, {"compound": "COc1cc(/C=C2\\SC(N3CCN(C)CC3)=NC2=O)ccc1Oc1ccc(C#N)cc1C(F)(F)F", "note": "[Compound 7, 4-{2-Methoxy-4-[2-(4-methyl-piperazin-1-yl)-4-oxo-4H-thiazol-5-ylidenemethyl]-phenoxy}-3-trifluoromethyl-benzonitrile]", "EC50": 0.011}, {"compound": "CN1CCN(C2=NC(=O)/C(=C/c3ccc(Oc4ccc(C#N)cc4C(F)(F)F)c(F)c3)S2)CC1", "note": "[Compound 8, 4-{2-Fluoro-4-[2-(4-methyl-piperazin-1-yl)-4-oxo-4H-thiazol-5-ylidenemethyl]-phenoxy}-3-trifluoromethyl-benzonitrile]", "EC50": 0.014}, {"compound": "COc1cc(/C=C2\\SC(NC3CC3)=NC2=O)ccc1Oc1ccc(C#N)cc1C(F)(F)F", "note": "[Compound 9, 4-[4-(2-Cyclopropylamino-4-oxo-4H-thiazol-5-ylidenemethyl)-2-methoxy-phenoxy]-3-trifluoromethyl-benzonitrile]", "EC50": 0.015}, {"compound": "N#Cc1ccc(Oc2ccc(/C=C3\\SC(NC4CC4)=NC3=O)cc2F)c(C(F)(F)F)c1", "note": "[Compound 10, 4-[4-(2-Cyclopropylamino-4-oxo-4H-thiazol-5-ylidenemethyl)-2-fluoro-phenoxy]-3-trifluoromethyl-benzonitrile]", "EC50": 0.052}, {"compound": "COc1cc(/C=C2\\SC(N(C)CCN(C)C)=NC2=O)ccc1Oc1ccc(C#N)cc1C(F)(F)F", "note": "[Compound 11, 4-(4-{2-[(2-Dimethylamino-ethyl)-methyl-amino]-4-oxo-4H-thiazol-5-ylidenemethyl}-2-methoxy-phenoxy)-3-trifluoromethyl-benzonitrile]", "EC50": 0.019}, {"compound": "COc1cc(/C=C2\\SC(N(CCO)CCO)=NC2=O)ccc1Oc1ccc(C#N)cc1C(F)(F)F", "note": "[Compound 12, 4-(4-{2-[Bis-(2-hydroxy-ethyl)-amino]-4-oxo-4H-thiazol-5-ylidenemethyl}-2-methoxy-phenoxy)-3-trifluoromethyl-benzonitrile]", "EC50": 0.025}, {"compound": "COc1cc(/C=C2\\SC(NC3CCNC3)=NC2=O)ccc1Oc1ccc(C#N)cc1C(F)(F)F", "note": "(stereo not drawn) [Compound 13, 4-{2-Methoxy-4-[4-oxo-2-(pyrrolidin-3-ylamino)-4H-thiazol-5-ylidenemethyl]-phenoxy}-3-trifluoromethyl-benzonitrile]", "EC50": 0.034}, {"compound": "COc1cc(/C=C2\\SC(NC3CCN(C)CC3)=NC2=O)ccc1Oc1ccc(C#N)cc1C(F)(F)F", "note": "[Compound 14, 4-{2-Methoxy-4-[2-(1-methyl-piperidin-4-ylamino)-4-oxo-4H-thiazol-5-ylidenemethyl]-phenoxy}-3-trifluoromethyl-benzonitrile]", "EC50": 0.013}, {"compound": "COc1cc(/C=C2\\SC(NC3CCOCC3)=NC2=O)ccc1Oc1ccc(C#N)cc1C(F)(F)F", "note": "[Compound 15, 4-{2-Methoxy-4-[4-oxo-2-(tetrahydro-pyran-4-ylamino)-4H-thiazol-5-ylidenemethyl]-phenoxy}-3-trifluoromethyl-benzonitrile]", "EC50": 0.018}, {"compound": "COc1cc(/C=C2\\SC(N3CCN(CCO)CC3)=NC2=O)ccc1Oc1ccc(C#N)cc1C(F)(F)F", "note": "[Compound 16, 4-(4-{2-[4-(2-Hydroxy-ethyl)-piperazin-1-yl]-4-oxo-4H-thiazol-5-ylidenemethyl}-2-methoxy-phenoxy)-3-trifluoromethyl-benzonitrile]", "EC50": 0.019}, {"compound": "COc1cc(/C=C2\\SC(NCc3ccccn3)=NC2=O)ccc1Oc1ccc(C#N)cc1C(F)(F)F", "note": "[Compound 17, 4-(2-Methoxy-4-{4-oxo-2-[(pyridin-2-ylmethyl)-amino]-4H-thiazol-5-ylidenemethyl}-phenoxy)-3-trifluoromethyl-benzonitrile]", "EC50": 0.029}, {"compound": "COCCNC1=NC(=O)/C(=C/c2ccc(Oc3ccc(C#N)cc3C(F)(F)F)c(OC)c2)S1", "note": "[Compound 18, 4-{2-Methoxy-4-[2-(2-methoxy-ethylamino)-4-oxo-4H-thiazol-5-ylidenemethyl]-phenoxy}-3-trifluoromethyl-benzonitrile]", "EC50": 0.112}, {"compound": "COc1cc(/C=C2\\SC(NCc3cccnc3)=NC2=O)ccc1Oc1ccc(C#N)cc1C(F)(F)F", "note": "[Compound 19, 4-(2-Methoxy-4-{4-oxo-2-[(pyridin-3-ylmethyl)-amino]-4H-thiazol-5-ylidenemethyl}-phenoxy)-3-trifluoromethyl-benzonitrile]", "EC50": 0.018}, {"compound": "COc1cc(/C=C2\\SC(NCCN3CCCC3)=NC2=O)ccc1Oc1ccc(C#N)cc1C(F)(F)F", "note": "[Compound 20, 4-{2-Methoxy-4-[4-oxo-2-(2-pyrrolidin-1-yl-ethylamino)-4H-thiazol-5-ylidenemethyl]-phenoxy}-3-trifluoromethyl-benzonitrile]", "EC50": 0.032}, {"compound": "COc1cc(/C=C2\\SC(N3CCNC(=O)C3)=NC2=O)ccc1Oc1ccc(C#N)cc1C(F)(F)F", "note": "[Compound 21, 4-{2-Methoxy-4-[4-oxo-2-(3-oxo-piperazin-1-yl)-4H-thiazol-5-ylidenemethyl]-phenoxy}-3-trifluoromethyl-benzonitrile]", "EC50": 0.009}, {"compound": "COc1cc(/C=C2\\SC(NCCCN3CCCC3=O)=NC2=O)ccc1Oc1ccc(C#N)cc1C(F)(F)F", "note": "[Compound 22, 4-(2-Methoxy-4-{4-oxo-2-[3-(2-oxo-pyrrolidin-1-yl)-propylamino]-4H-thiazol-5-ylidenemethyl}-phenoxy)-3-trifluoromethyl-benzonitrile]", "EC50": 0.009}, {"compound": "COc1cc(/C=C2\\SC(N(C)CC(O)CO)=NC2=O)ccc1Oc1ccc(C#N)cc1C(F)(F)F", "note": "(stereo not drawn) [Compound 23, 4-(4-{2-[(2,3-Dihydroxy-propyl)-methyl-amino]-4-oxo-4H-thiazol-5-ylidenemethyl}-2-methoxy-phenoxy)-3-trifluoromethyl-benzonitrile]", "EC50": 0.009}, {"compound": "COc1cc(/C=C2\\SC(NCc3ccncc3)=NC2=O)ccc1Oc1ccc(C#N)cc1C(F)(F)F", "note": "[Compound 24, 4-(2-Methoxy-4-{4-oxo-2-[(pyridin-4-ylmethyl)-amino]-4H-thiazol-5-ylidenemethyl}-phenoxy)-3-trifluoromethyl-benzonitrile]", "EC50": 0.016}]}]}
